Test results taken from article PMC11277489, “Novel Piperazine Derivatives of Vindoline as Anticancer Agents” (International Journal of Molecular Sciences, 2024).

Key:
[1] = system: CCRF-CEM; experiment: NCI60 one-dose screen (10 μM), Leukemia; format: cell-based; conditions: Homo sapiens, read-out: Growth percent rate
[2] = system: HL-60(TB); experiment: NCI60 one-dose screen (10 μM), Leukemia; format: cell-based; conditions: Homo sapiens, HL-60, read-out: Growth percent rate
[3] = system: K-562; experiment: NCI60 one-dose screen (10 μM), Leukemia; format: cell-based; conditions: Homo sapiens, K562, read-out: Growth percent rate
[4] = system: MOLT-4; experiment: NCI60 one-dose screen (10 μM), Leukemia; format: cell-based, human; conditions: Homo sapiens, MOLT-4, read-out: Growth percent rate
[5] = system: RPMI-8226; experiment: NCI60 one-dose screen (10 μM), Leukemia; format: cell-based; conditions: Homo sapiens, RPMI-8226, read-out: Growth percent rate
[6] = system: A549/ATCC; experiment: NCI60 one-dose screen (10 μM), Non-small Cell Lung Cancer; format: cell-based; conditions: Homo sapiens, A549, read-out: Growth percent rate
[7] = system: EKVX; experiment: as above; format: cell-based; conditions: Homo sapiens, read-out: Growth percent rate
[8] = system: HOP-62; experiment: as above; format: cell-based; conditions: Homo sapiens, HOP-62, read-out: Growth percent rate
[9] = system: NCI-H23; experiment: as above; format: cell-based; conditions: Homo sapiens, NCI-H23, read-out: Growth percent rate
[10] = system: NCI-H322M; experiment: as above; format: cell-based; conditions: Homo sapiens, read-out: Growth percent rate
[11] = system: NCI-H522; experiment: as above; format: cell-based; conditions: Homo sapiens, NCI-H522, read-out: Growth percent rate
[12] = system: COLO 205; experiment: NCI60 one-dose screen (10 μM), Colon Cancer; format: cell-based, human; conditions: Homo sapiens, COLO 205, read-out: Growth percent rate
[13] = system: HCC-2998; experiment: NCI60 one-dose screen (10 μM), Colon Cancer; format: cell-based; conditions: Homo sapiens, HCC 2998, read-out: Growth percent rate
[14] = system: HCT-116; experiment: NCI60 one-dose screen (10 μM), Colon Cancer; format: cell-based; conditions: Homo sapiens, HCT-116, read-out: Growth percent rate
[15] = system: HCT-15; experiment: NCI60 one-dose screen (10 μM), Colon Cancer; format: cell-based; conditions: Homo sapiens, HCT-15, read-out: Growth percent rate
[16] = system: HT29; experiment: NCI60 one-dose screen (10 μM), Colon Cancer; format: cell-based; conditions: Homo sapiens, HT-29, read-out: Growth percent rate
[17] = system: KM12; experiment: NCI60 one-dose screen (10 μM), Colon Cancer; format: cell-based, human; conditions: Homo sapiens, KM12, read-out: Growth percent rate
[18] = system: SW-620; experiment: NCI60 one-dose screen (10 μM), Colon Cancer; format: cell-based; conditions: Homo sapiens, SW-620, read-out: Growth percent rate
[19] = system: SF-268; experiment: NCI60 one-dose screen (10 μM), CNS Cancer; format: cell-based; conditions: Homo sapiens, SF-268, read-out: Growth percent rate
[20] = system: SF-295; experiment: NCI60 one-dose screen (10 μM), CNS Cancer; format: cell-based; conditions: Homo sapiens, SF-295, read-out: Growth percent rate
[21] = system: SF-539; experiment: NCI60 one-dose screen (10 μM), CNS Cancer; format: cell-based, human; conditions: Homo sapiens, SF-539, read-out: Growth percent rate
[22] = system: SNB-19; experiment: NCI60 one-dose screen (10 μM), CNS Cancer; format: cell-based; conditions: Homo sapiens, SNB-19, read-out: Growth percent rate
[23] = system: LOX IMVI; experiment: NCI60 one-dose screen (10 μM), Melanoma; format: cell-based, human; conditions: Homo sapiens, LOX IMVI, read-out: Growth percent rate
[24] = system: MALME-3M; experiment: NCI60 one-dose screen (10 μM), Melanoma; format: cell-based; conditions: Homo sapiens, Malme-3M, read-out: Growth percent rate
[25] = system: M14; experiment: NCI60 one-dose screen (10 μM), Melanoma; format: cell-based; conditions: Homo sapiens, M14, read-out: Growth percent rate
[26] = system: MDA-MB-435; experiment: NCI60 one-dose screen (10 μM), Melanoma; format: cell-based; conditions: Homo sapiens, MDA-MB-435, read-out: Growth percent rate
[27] = system: SK-MEL-2; experiment: NCI60 one-dose screen (10 μM), Melanoma; format: cell-based; conditions: Homo sapiens, SK-MEL-2, read-out: Growth percent rate
[28] = system: SK-MEL-28; experiment: NCI60 one-dose screen (10 μM), Melanoma; format: cell-based; conditions: Homo sapiens, SK-MEL-28, read-out: Growth percent rate
[29] = system: SK-MEL-5; experiment: NCI60 one-dose screen (10 μM), Melanoma; format: cell-based, human; conditions: Homo sapiens, SK-MEL-5, read-out: Growth percent rate
[30] = system: UACC-257; experiment: NCI60 one-dose screen (10 μM), Melanoma; format: cell-based; conditions: Homo sapiens, UACC-257, read-out: Growth percent rate
[31] = system: IGROV1; experiment: NCI60 one-dose screen (10 μM), Ovarian Cancer; format: cell-based; conditions: Homo sapiens, IGROV-1, read-out: Growth percent rate
[32] = system: OVCAR-3; experiment: NCI60 one-dose screen (10 μM), Ovarian Cancer; format: cell-based; conditions: Homo sapiens, OVCAR-3, read-out: Growth percent rate
[33] = system: OVCAR-4; experiment: NCI60 one-dose screen (10 μM), Ovarian Cancer; format: cell-based; conditions: Homo sapiens, OVCAR-4, read-out: Growth percent rate
[34] = system: OVCAR-8; experiment: NCI60 one-dose screen (10 μM), Ovarian Cancer; format: cell-based; conditions: Homo sapiens, OVCAR-8, read-out: Growth percent rate
[35] = system: 786–0; experiment: NCI60 one-dose screen (10 μM), Renal Cancer; format: cell-based; conditions: Homo sapiens, 786-0, read-out: Growth percent rate
[36] = system: ACHN; experiment: NCI60 one-dose screen (10 μM), Renal Cancer; format: cell-based; conditions: Homo sapiens, read-out: Growth percent rate
[37] = system: CAKI-1; experiment: NCI60 one-dose screen (10 μM), Renal Cancer; format: cell-based; conditions: Homo sapiens, CAKI-1, read-out: Growth percent rate
[38] = system: RXF 393; experiment: NCI60 one-dose screen (10 μM), Renal Cancer; format: cell-based, human; conditions: Homo sapiens, RXF 393, read-out: Growth percent rate
[39] = system: SN12C; experiment: NCI60 one-dose screen (10 μM), Renal Cancer; format: cell-based; conditions: Homo sapiens, read-out: Growth percent rate
[40] = system: TK-10; experiment: NCI60 one-dose screen (10 μM), Renal Cancer; format: cell-based; conditions: Homo sapiens, TK-10, read-out: Growth percent rate
[41] = system: MCF7; experiment: NCI60 one-dose screen (10 μM), Breast Cancer; format: cell-based; conditions: Homo sapiens, MCF7, read-out: Growth percent rate
[42] = system: HS 578T; experiment: NCI60 one-dose screen (10 μM), Breast Cancer; format: cell-based; conditions: Homo sapiens, Hs-578T, read-out: Growth percent rate

Work on CC[C@]12C=CCN3CC[C@@]4(c5ccc(OC)cc5N(C)[C@H]4[C@@](O)(C(=O)OC)[C@@H]1OC(=O)CCC(=O)N1CCN(C(=O)c4ccco4)CC1)[C@@H]32 [Compound 32] yielded an activity at 10 µM [1] of 86.8%, an activity at 10 µM [2] of 90.9% and an activity at 10 µM [3] of 102%. The activity at 10 µM [4] was 85.8%, the activity at 10 µM [5] was 99.4% and the activity at 10 µM [6] was 95.2%. For the same compound, the activity at 10 µM [7] was 99.4%, the activity at 10 µM [8] was 96.2% and the activity at 10 µM [9] was 101%. The activity at 10 µM [10] was 114%, the activity at 10 µM [11] was 81.4% and the activity at 10 µM [12] was 45.8%. The activity at 10 µM [13] was 113%, the activity at 10 µM [14] was 119% and the activity at 10 µM [15] was 100%. It also gave an activity at 10 µM [16] of 102%, an activity at 10 µM [17] of 100% and an activity at 10 µM [18] of 117%. The activity at 10 µM [19] was 92.2%, the activity at 10 µM [20] was 95.2% and the activity at 10 µM [21] was 98.8%. The activity at 10 µM [22] was 91.2%, the activity at 10 µM [23] was 97.8% and the activity at 10 µM [24] was 82%. For the same compound, the activity at 10 µM [25] was 88.3%, the activity at 10 µM [26] was 98.2% and the activity at 10 µM [27] was 96.8%. It also gave an activity at 10 µM [28] of 67.6%, an activity at 10 µM [29] of 83.8% and an activity at 10 µM [30] of 61.7%. It also gave an activity at 10 µM [31] of 126%, an activity at 10 µM [32] of 99.8% and an activity at 10 µM [33] of 98.1%. It also gave an activity at 10 µM [34] of 100%, an activity at 10 µM [35] of 104% and an activity at 10 µM [36] of 103%. The activity at 10 µM [37] was 78.4%, the activity at 10 µM [38] was 102% and the activity at 10 µM [39] was 94.4%. The activity at 10 µM [40] was 103%, the activity at 10 µM [41] was 91.5% and the activity at 10 µM [42] was 103%.
